Results: US11648253B2, “Thienopyrimidinone NMDA receptor modulators and uses thereof” (Novartis AG, priority 2015, dated 2023)

The compounds below were run against T1, NMDA receptor (GRIN1 / GRIN2B, NR2B) expressed in HEK293 cells (Homo sapiens, UniProt Q05586+Q13224) (assay: Reversal of Ro 25-6981-mediated suppression of Ca2+ response (fluo-8 fluorescence, FDSS) in HEK293 cells expressing GRIN1/GRIN2B). Details: % reversal of Ro 25-6981 suppression of co-agonist (glutamate/glycine) Ca2+ response, test concentration not given.
T1 construct: host or cells: HEK293
T1 sequence (Q13224 27-1484, other chains not shown): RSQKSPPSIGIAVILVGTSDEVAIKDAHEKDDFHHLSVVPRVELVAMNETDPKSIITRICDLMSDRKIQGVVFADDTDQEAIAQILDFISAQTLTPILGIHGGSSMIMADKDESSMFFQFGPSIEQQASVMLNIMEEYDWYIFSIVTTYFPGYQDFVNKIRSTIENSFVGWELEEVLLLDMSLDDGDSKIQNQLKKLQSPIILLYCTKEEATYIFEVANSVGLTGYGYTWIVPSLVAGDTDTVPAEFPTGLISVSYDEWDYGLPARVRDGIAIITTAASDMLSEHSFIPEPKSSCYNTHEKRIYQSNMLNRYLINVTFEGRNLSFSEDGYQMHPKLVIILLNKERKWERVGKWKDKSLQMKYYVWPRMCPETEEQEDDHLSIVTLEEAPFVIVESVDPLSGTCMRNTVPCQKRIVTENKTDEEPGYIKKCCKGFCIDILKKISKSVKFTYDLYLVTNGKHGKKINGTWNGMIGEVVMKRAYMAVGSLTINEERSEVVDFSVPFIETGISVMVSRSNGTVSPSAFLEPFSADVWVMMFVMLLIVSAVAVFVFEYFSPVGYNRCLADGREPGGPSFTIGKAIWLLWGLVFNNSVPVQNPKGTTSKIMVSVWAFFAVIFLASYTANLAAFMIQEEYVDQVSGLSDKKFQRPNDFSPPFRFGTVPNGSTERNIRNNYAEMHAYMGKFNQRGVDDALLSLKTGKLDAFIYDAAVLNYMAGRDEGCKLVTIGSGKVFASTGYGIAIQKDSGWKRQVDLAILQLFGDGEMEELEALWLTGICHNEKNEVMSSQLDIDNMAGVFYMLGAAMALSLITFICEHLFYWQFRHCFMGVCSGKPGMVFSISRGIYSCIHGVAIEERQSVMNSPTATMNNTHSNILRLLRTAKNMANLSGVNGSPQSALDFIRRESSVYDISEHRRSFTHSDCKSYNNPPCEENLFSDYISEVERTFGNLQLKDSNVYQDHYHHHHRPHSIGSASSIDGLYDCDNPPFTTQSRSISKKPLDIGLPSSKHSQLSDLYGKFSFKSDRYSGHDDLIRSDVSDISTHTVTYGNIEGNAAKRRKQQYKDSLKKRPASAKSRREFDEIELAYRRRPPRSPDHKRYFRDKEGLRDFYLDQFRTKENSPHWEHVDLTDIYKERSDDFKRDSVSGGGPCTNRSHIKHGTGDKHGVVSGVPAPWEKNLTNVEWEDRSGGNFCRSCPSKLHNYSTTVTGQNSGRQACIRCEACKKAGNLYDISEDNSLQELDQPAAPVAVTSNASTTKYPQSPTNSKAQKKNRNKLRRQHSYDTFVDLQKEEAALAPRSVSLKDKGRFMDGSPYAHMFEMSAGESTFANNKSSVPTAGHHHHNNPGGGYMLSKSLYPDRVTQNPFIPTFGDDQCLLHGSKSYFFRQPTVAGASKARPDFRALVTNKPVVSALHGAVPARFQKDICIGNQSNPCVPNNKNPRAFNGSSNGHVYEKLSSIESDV
Assay type: cell-based
Method: HEK293 cells with constructs conferring stable expression of the GRIN1 gene and tetracycline-inducible expression of the GRIN2B gene (Chantest, Cleveland, Ohio) are grown to ˜75% confluence in tissue culture flasks at 37° C., 5% CO2. NR2B expression is induced by overnight incubation with 0.3-0.4 μg/ml tetracycline in the presence of 2.5 mM ARL-15896 at 37° C., followed by moving to 30° C. for 3-5 hours. Cells are next harvested using TripleExpressm (Life Technologies, Carlsbad, Calif.) according to the manufacturer's instructions, first removing culture medium, rinsing with Dulbecco's phosphate buffered saline (Ca^2+ and Mg^2+-free), and then adding the TripleExpressm reagent. Harvested cells are spun down, washed twice in Ca^2+- and Mg^2+-free Hank's Balanced Salt Solution with 20 mM HEPES and 10 mM glucose, pH 7.4 (HHnoCa solution), and counted with viability assessed using Trypan Blue. Cells are loaded with fluo-8 Ca^2+-sensitive dye in HHnoCa solution according to the manufacturer's directions (AAT Bioquest, Sunnyvale, Calif.), incubating at 37° C. for 20 minutes followed by 25 minutes at 22-25° C. After a wash in HHnoCa to remove extracellular dye, cells are resuspended in HHnoCa and plated at […] cells per well in a volume of 25 μl/well in 384 well black-wall, clear bottom plates (Hamamatsu, Middlesex, N.J.). Plates are then centrifuged to create a monolayer in the wells and stored in the dark until used.
Prior to analysis, compound plates are prepared with each compound at 6× the final desired concentration. From stock solutions at 10 mM in 100% DMSO, compounds are spotted in the desired amounts using an ECHO liquid handler (Labcyte, Sunnyvale, Calif.) into wells of a 384-well plate and then diluted with 50 μl of HHnoCa containing 750 nM Ro 25-6981 and 120 μM 5,7-dichlorokynurenic acid (both purchased from Tocris Bioscience (Bristol, England) and maintained as 10 mM stock solutions in 100% DMSO). To insure complete compound dissolution, these plates are then placed in an orbital shaker for at least one hour. Also prepared prior to the assay is a co-agonist plate containing HHnoCa with 240 μM glutamate, 2.4 mM glycine, and 7.2 mM CaCl2, which is 2.4× the desired final concentration of each reagent. Both the compound plate and co-agonist plate are 384-well polypropylene plates from Thermo Fisher Scientific, Waltham, Mass.
The assay is performed by first adding 10 μl solution from each well of the compound plate described above to the cell plate using a CyBiWell liquid handler (Analytik Jena AG, Jena, Germany), followed by 10 minutes pre-incubation in the dark. Cell plates are then loaded onto a Hamamatsu FDSS 6000 plate reader. After a 30-second baseline, 25 μl is added to each well from the co-agonist plate, and the fluorescence signal is recorded for another 2 minutes. FDSS software applies shading and autofluorescence correction, and resultant raw fluorescence measurements are exported in the form of a fluorescence ratio for each well to its own reading at time zero in the experiment. In each plate, negative control wells consist of wells where Ro 25-6981 and 5,7 dichlorokynurenic acid are present and co-agonist is applied in the absence of any added assay compound. Under these conditions, the Ca^2+ response to co-agonist is suppressed. Positive control wells also present in each plate contain 5,7 dichlorokynurenic acid but no Ro 25-6981, so that co-agonist addition results in a large Ca^2+ response. Compounds tested are evaluated on the basis of their ability to reverse the suppression of the Ca^2+ response mediated by Ro 25-6981, which is quantified as % reversal=100*(R−Rneg)/(Rpos−Rneg) where R is the fluorescence ratio for the test compound at the end of the experiment and Rneg and Rpos are the end ratios for the negative and positive controls, respectively. […]

| Compound | Avg Response Recovered (%) |
| --- | --- |
| O=C(Cn1cnc2scc(-c3ccc(Cl)cc3)c2c1=O)N1CCC1 [Example 1, 3-[2-(azetidin-1-yl)-2-oxoethyl]-5-(4-chlorophenyl)-3H,4H-thieno[2,3-d]pyrimidin-4-one] | 2% |
| O=C(Cn1cnc2scc(-c3ccc(Cl)cc3)c2c1=O)N1CC(F)(F)C1 [Example 2, 5-(4-chlorophenyl)-3-[2-(3,3-difluoroazetidin-1-yl)-2-oxoethyl]-3H,4H-thieno[2,3-d]pyrimidin-4-one] | 7% |
| O=C(Cn1cnc2scc(-c3ccc(Cl)cc3)c2c1=O)N1CC2(COC2)C1 [Example 3, 5-(4-chlorophenyl)-3-(2-{2-oxa-6-azaspiro[3.3]heptan-6-yl}-2-oxoethyl)-3H,4H-thieno[2,3-d]pyrimidin-4-one] | 0% |
| COC1CN(C(=O)Cn2cnc3scc(-c4ccc(Cl)cc4)c3c2=O)C1 [Example 4, 5-(4-chlorophenyl)-3-[2-(3-methoxyazetidin-1-yl)-2-oxoethyl]-3H,4H-thieno[2,3-d]pyrimidin-4-one] | 1% |
| O=C(Cn1cnc2scc(-c3ccc(C(F)(F)F)cc3)c2c1=O)N1CC(F)(F)C1 [Example 5, 3-[2-(3,3-difluoroazetidin-1-yl)-2-oxoethyl]-5-[4-(trifluoromethyl)phenyl]-3H,4H-thieno[2,3-d]pyrimidin-4-one] | 11% |
| O=C(Cn1cnc2scc(-c3ccc(Cl)c(C(F)(F)F)c3)c2c1=O)N1CC(F)(F)C1 [Example 6, 5-[4-chloro-3-(trifluoromethyl)phenyl]-3-[2-(3,3-difluoroazetidin-1-yl)-2-oxoethyl]-3H,4H-thieno[2,3-d]pyrimidin-4-one] | 62% |
| O=C(Cn1cnc2scc(-c3ccc(F)cc3)c2c1=O)N1CC(F)(F)C1 [Example 7, 3-[2-(3,3-difluoroazetidin-1-yl)-2-oxoethyl]-5-(4-fluorophenyl)-3H,4H-thieno[2,3-d]pyrimidin-4-one] | 6% |
| Cc1ccc(-c2csc3ncn(CC(=O)N4CC(F)(F)C4)c(=O)c23)cc1 [Example 8, 3-[2-(3,3-difluoroazetidin-1-yl)-2-oxoethyl]-5-(4-methylphenyl)-3H,4H-thieno[2,3-d]pyrimidin-4-one] | 5% |
| O=C(Cn1cnc2scc(-c3ccc(F)c(Cl)c3)c2c1=O)N1CC(F)(F)C1 [Example 9, 5-(3-chloro-4-fluorophenyl)-3-[2-(3,3-difluoroazetidin-1-yl)-2-oxoethyl]-3H,4H-thieno[2,3-d]pyrimidin-4-one] | 49% |
| O=C(Cn1cnc2scc(-c3ccc(Cl)c(Cl)c3)c2c1=O)N1CC(F)(CF)C1 [Example 10, 5-(3,4-dichlorophenyl)-3-{2-[3-fluoro-3-(fluoromethyl)azetidin-1-yl]-2-oxoethyl}-3H,4H-thieno[2,3-d]pyrimidin-4-one] | 121% |
| CC1(F)CN(C(=O)Cn2cnc3scc(-c4ccc(Cl)c(Cl)c4)c3c2=O)C1 [Example 11, 5-(3,4-dichlorophenyl)-3-[2-(3-fluoro-3-methylazetidin-1-yl)-2-oxoethyl]-3H,4H-thieno[2,3-d]pyrimidin-4-one] | 152% |
| CCC1(F)CN(C(=O)Cn2cnc3scc(-c4ccc(F)c(Cl)c4)c3c2=O)C1 [Example 12, 5-(3-chloro-4-fluorophenyl)-3-[2-(3-ethyl-3-fluoroazetidin-1-yl)-2-oxoethyl]-3H,4H-thieno[2,3-d]pyrimidin-4-one] | 149% |
| O=C(Cn1cnc2scc(-c3ccc(F)c(Cl)c3)c2c1=O)N1CC(F)(CF)C1 [Example 13, 5-(3-chloro-4-fluorophenyl)-3-{2-[3-fluoro-3-(fluoromethyl)azetidin-1-yl]-2-oxoethyl}-3H,4H-thieno[2,3-d]pyrimidin-4-one] | 141% |
| CC1(F)CN(C(=O)Cn2cnc3scc(-c4ccc(F)c(Cl)c4)c3c2=O)C1 [Example 14, 5-(3-chloro-4-fluorophenyl)-3-[2-(3-fluoro-3-methylazetidin-1-yl)-2-oxoethyl]-3H,4H-thieno[2,3-d]pyrimidin-4-one] | 165% |
| CCC1(F)CN(C(=O)Cn2cnc3scc(-c4ccc(Cl)c(Cl)c4)c3c2=O)C1 [Example 15, 5-(3,4-dichlorophenyl)-3-[2-(3-ethyl-3-fluoroazetidin-1-yl)-2-oxoethyl]-3H,4H-thieno[2,3-d]pyrimidin-4-one] | 103% |
| O=C(Cn1cnc2sc(-c3ccc(Cl)cc3)cc2c1=O)N1CCC1 [Example 16, 3-[2-(azetidin-1-yl)-2-oxoethyl]-6-(4-chlorophenyl)-3H,4H-thieno[2,3-d]pyrimidin-4-one] | 23% |
| COC1CN(C(=O)Cn2cnc3sc(-c4ccc(Cl)cc4)cc3c2=O)C1 [Example 17, 6-(4-chlorophenyl)-3-[2-(3-methoxyazetidin-1-yl)-2-oxoethyl]-3H,4H-thieno[2,3-d]pyrimidin-4-one] | 24% |
| Cc1sc2ncn(CC(=O)N3CC(F)(F)C3)c(=O)c2c1-c1ccc(Cl)cc1 [Example 18, 5-(4-chlorophenyl)-3-[2-(3,3-difluoroazetidin-1-yl)-2-oxoethyl]-6-methyl-3H,4H-thieno[2,3-d]pyrimidin-4-one] | 11% |
| Cc1nc2scc(-c3ccc(Cl)cc3)c2c(=O)n1CC(=O)N1CC(F)(F)C1 [Example 19, 5-(4-chlorophenyl)-3-[2-(3,3-difluoroazetidin-1-yl)-2-oxoethyl]-2-methyl-3H,4H-thieno[2,3-d]pyrimidin-4-one] | 5% |
| O=C(CCn1cnc2scc(-c3ccc(Cl)c(C(F)(F)F)c3)c2c1=O)N1CC(F)(F)C1 [Example 20, 5-[4-chloro-3-(trifluoromethyl)phenyl]-3-[3-(3,3-difluoroazetidin-1-yl)-3-oxopropyl]-3H,4H-thieno[2,3-d]pyrimidin-4-one] | −1% |
| O=C(Cn1c(C(F)(F)F)nc2scc(-c3ccc(Cl)cc3)c2c1=O)N1CC(F)(F)C1 [Example 21, 5-(4-chlorophenyl)-3-[2-(3,3-difluoroazetidin-1-yl)-2-oxoethyl]-2-(trifluoromethyl)-3H,4H-thieno[2,3-d]pyrimidin-4-one] | 0% |
